Consider one compound from patent US20140072557A1, “MEDICINAL AGENT FOR SUPPRESSING MALIGNANT TUMOR METASTASIS” (priority 2011, published 2014).

The test system of assay [1] is mouse melanoma B16-F10. As to the kind of experiment: Mouse tail vein injection metastasis test, mouse melanoma B16-F10. The conditions noted are these: 0.5 μg/kg/min by subcutaneous osmotic pump, 2 weeks. Format: in vivo, mice. As for the experimental part: 6-week-old male […] mice were used (purchased from Japan SLC, Inc.). Mouse melanoma B16-F10 was purchased from ATCC, and cultured in DMEM (Life Technologies Corp.) containing 10% FCS under 5% CO2 at 37° C. The cells in a subconfluent state were treated with EDTA-trypsin, centrifuged, and then suspended in serum free DMEM so as to be 5×10^6 cells/mL. The melanoma cell suspension (100 μL/mouse, 5×10^5 cells) was injected to the tail vein of the mice. The osmotic pumps used were MODEL2002 (for 14-day administration) made by ALZET (Cupertino, Calif,.).
Mice into which an osmotic pump containing 0.9% physiological saline was subcutaneously implanted in the back were assigned to the control group. Similarly, an osmotic pump containing hANP prepared for administration at 0.5 μg/kg/min was subcutaneously implanted into each mouse in the ANP group, an osmotic pump containing mouse BNP prepared for administration at 0.5 μg/kg/min was subcutaneously implanted into each mouse in the BNP group, and an osmotic pump containing hCNP-22 prepared for administration at 2.5 μg/kg/min was subcutaneously implanted into each mouse in the CNP group. To the mice in the sildenafil group, sildenafil citrate at a dosage of 20 mg/kg was intraperitoneally administered once daily. […]

For assay [2], the system named is lung cancer patients. As to the kind of experiment: Cancer recurrence after cancer resection surgery in lung cancer patients. Type of assay: in vivo, human. Conditions: hANP 0.025 μg/kg/min continuous from surgery for 3 days, about 2 years follow-up, stages IA-III. As for the experimental part:
It is reported that lung cancer patients whose BNP level in the blood is 30 pg/mL or higher are at high risk of postsurgical complications after a cancer removal surgery. In this experiment, lung cancer patients were measured for the BNP level in the blood before cancer removal surgery. A part of the patients having the BNP level in the blood of 30 pg/mL or higher and patients judged to be at high risk of postsurgical complications by the doctor in charge were assigned to the hANP group (52 patients in total; cancer stage breakdown was IA: 26 patients […], IB: 16 patients […], II: 7 patients […], and III: 3 patients (6%)). The control group consisted of patients assigned regardless of the BNP level in the blood (287 patients in total, cancer stage breakdown was IA: 155 patients (54%), IB: 65 patients (23%), II: 35 patients (12%), and III: 32 patients (11%)). To the hANP group, hANP (trade name: HAMP for INJECTION 1000, non-bolus, made by DAIICHI SANKYO Co., Ltd.) was continuously administered at 0.025 μg/kg/min starting during the surgery of lung cancer and the administration continued for 3 days after surgery. Before the surgery and for 4 days after surgery, each patient was measured for the blood pressure (systolic and diastolic), the heart rate, and the urine volume. […]

Assay [3] relates to cancer cells (A549, H460, H520, H358 cells). As to the kind of experiment: Combined effect of hANP and cisplatin on apoptosis induction in cancer cells. Type of assay: cell-based. Conditions: hANP 1 or 10 μM with cisplatin 1-30 μM, 48 hours. As for the experimental part:
As the cisplatin, CISPLATIN inj. “Maruko” (trade name, Nichi-Iko Pharmaceutical) was used.
Using a 96-well dish, the A549 cells were cultured at 1×10^4 cells/well. The next day, the culture medium was replaced with DMEM culture medium free from FBS. After 24-hours culture, the cells were divided into groups (control group, cisplatin single administration group, 1 μM hANP group, cisplatin+1 μM hANP group, 10 μM hANP group, and cisplatin+10 μM hANP group), and the following experiment was conducted.
To the culture medium, for the hANP addition groups, a hANP solution prepared so that the final concentration of hANP would be 1 or 10 μM was added, whereas for the control group and the cisplatin single administration group, the same amount of physiological saline was added. Further, for the cisplatin addition groups, a cisplatin solution prepared so that the final concentration of cisplatin would be 1, 5, 10, 20, or 30 μM was added (for the control group and the hANP single administration group, the same amount of physiological saline was added). […] 48 hours later, trypan blue staining was performed and the cell viability (number of living cells/total number of all cells) was determined with the use of an automatic cell counter Countess (registered trademark) (Invitrogen). […]

Assay [4] deals with A549 cells. Description: Migration ability, Boyden chamber assay, A549 cells. Type of assay: cell-based. The conditions noted are these: 1 μM hANP, TGF-β1 1 ng/mL, 20 hours. As for the experimental part: Using a 6-well dish, the A549 cells were cultured at 1×10^5 cells/well, and the culture medium was replaced with DMEM culture medium free from FBS the next day. After 24 hours of culture, the cells were divided into 3 groups (the control group, the TGF-β1 group, and the TGF-β1+hANP group), and used in the following experiment.
To the culture medium for the TGF-β+hANP group, the hANP solution was added so that the final concentration of hANP might be 1 μM. For the control group and the TGF-β1 group, the same amount of physiological saline was added to the culture medium. After 2 hours from the addition, the Boyden chamber assay was performed as follows.
DMEM culture medium free from FBS for the control group, the same DMEM culture medium containing TGF-β1 (final concentration: 1 ng/mL) for the TGF-β1 group, and the same DMEM culture medium containing hANP (final concentration: 1 μM) and TGF-β1 (final concentration: 1 ng/mL) for the TGF-β1+hANP group were separately added to each well of a 6-well dish in an amount of 1.5 mL. On the surface of each liquid, a cell culture insert (8.0 μm pore size, made by Becton, Dickinson and Company) was placed, and onto each cell culture insert, 1.5 mL of a cell suspension of A549 cells of each group in FBS-free DMEM (hANP at final concentration of 1 μM was added for the TGF-β1+hANP group) was added and cultured. […]

Regarding `CC[C@H](C)[C@@H]1NC(=O)[C@H](CCCNC(=N)N)NC(=O)[C@H](CC(=O)O)NC(=O)[C@H](CCSC)NC(=O)[C@H](CCCNC(=N)N)NC(=O)CNC(=O)CNC(=O)[C@H](Cc2ccccc2)NC(=O)[C@@H](NC(=O)[C@H](CO)NC(=O)[C@H](CO)NC(=O)[C@H](CCCNC(=N)N)NC(=O)[C@H](CCCNC(=N)N)NC(=O)[C@H](CC(C)C)NC(=O)[C@@H](N)CO)CSSC[C@@H](C(=O)N[C@@H](CC(N)=O)C(=O)N[C@@H](CO)C(=O)N[C@@H](Cc2ccccc2)C(=O)N[C@@H](CCCNC(=N)N)C(=O)N[C@@H](Cc2ccc(O)cc2)C(=O)O)NC(=O)CNC(=O)[C@H](CC(C)C)NC(=O)CNC(=O)[C@H](CO)NC(=O)[C@H](CCC(N)=O)NC(=O)[C@H](C)NC(=O)CNC1=O` [hANP, carperitide], the “lung metastasis of melanoma (number of nodules)” value in assay [1] is on record as “significantly suppressed”. Further, the “early recurrence of cancer (recurrence-free survival)” value in assay [2] is on record as “early recurrence was not observed”. Also, in assay [3], the “apoptosis-inducing activity in combination with cisplatin” value is recorded as “enhanced”. For the same compound, the “migration ability (cells on lower surface of insert)” value in assay [4] is “significantly suppressed”.
